Several values for one entry are separate records, joined by “and”; a condition that tells them apart may be missing. Equal values may be shown once. Read-outs that look alike come from different tables or passages of the source.
Key:
[1] = system: BV2 cells; assay: MTT cell viability assay; format: cell-based, mouse
[2] = system: LPS-induced NO release of BV2 microglial cells; assay: Nitrite quantification; format: cell-based, mouse; conditions: 1 h pretreatment, LPS 800 ng/ml 24 h
[3] = Mus musculus, BV-2, read-out: Cell viability IC50

Compound	IC50 ([1]; read-out: Cell viability IC50, BV2 microglial cells)	NO Inhibition (% of LPS) LPS/drugs (0.7 μM) [2]	NO Inhibition (% of LPS) LPS/drugs (1.5 μM) [2]	IC50 [1, 3]	NO Inhibition (% of LPS) LPS/drugs (12 μM) ([2]; 12 μM)	NO Inhibition (% of LPS) LPS/drugs (25 μM) ([2]; 25 μM)	NO Inhibition (% of LPS) LPS/drugs (50 μM) ([2]; 50 μM)	NO Inhibition (% of LPS) LPS/drugs (3 μM) ([2]; 3 μM)
lochnericine [Compound 2]	28.7 ± 1.2 µM	11.2 ± 2.0 % of LPS	31.3 ± 3.2 % of LPS					
C[C@@H]1C[C@H]2[C@@H]3CCC4=CC(=O)C=C[C@]4(C)[C@@]3(F)[C@@H](O)C[C@]2(C)[C@@]1(O)C(=O)CO [Dexamethasone, reference compound]				> 100 µM	61.9 ± 4.7 % of LPS	71.1 % of LPS and 71.1 ± 3.0 % of LPS	75.1 ± 1.9 % of LPS	
CC[C@]12C=CCN3CC[C@]4(C(=C(C(=O)OC)C1)Nc1ccccc14)[C@@H]32 [Compound 7, tabersonine]		18.8 ± 7.0 % of LPS	29.3 ± 3.1 % of LPS	16.1 ± 1.1 µM				45.9 ± 2.4 % of LPS

Source: publication PMC10863309 (Redox Biology, 2024)
